# Data from patent US11407745B2, “Indazole derivatives and pharmaceutical composition for preventing, alleviating or treating cancer containing the same” (KOREA INSTITUTE OF SCIENCE AND TECHNOLOGY, priority 2019, dated 2022).
# Like-named read-outs stand apart in the source and are kept apart here.
# Tests used:
# [1] = biological target: T1, ABL^wild (Homo sapiens, UniProt P00519); assay: Hot Spot kinase assay, ABL wild type; type: biochemical; conditions: for IC50: ATP 10 μM, 25° C., 120 minutes
# Experimental: (§1) Kinase analysis was conducted in a “Hot Spot” analysis platform manner. Specific kinase/substrate pairs and cofactors were prepared in a reaction buffer (20 mM HEPES (pH 7.5), 10 mM MgCl2, 1 mM EGTA, 0.02% Brij35, 0.02 mg/ml BSA, 0.1 mM Na3VO4, 2 mM DTT and 1% DMSO). 10 concentrations of compounds that were serially diluted 3 times in sequence from a concentration of 20 μM were added to the reaction mixture, and a mixture of ATP (10 μM, Sigma) and 33P ATP (Perkin Elmer) was added thereto after 20 minutes.
# [2] = system: K-562 (human leukemia cancer) cells; assay: MTT assay, anti-proliferative effect on K-562; type: cell-based; conditions: for GI50: Homo sapiens, MTT; for fold higher inhibitory effect than imatinib (K-562 GI50): versus imatinib positive control; for fold higher inhibitory effect than nilotinib (K-562 GI50): versus nilotinib
# Experimental: The cell line used for an MTT assay was K-562 (human leukemia cancer), and was obtained from the Korea Cell Line Bank and then cultured. The medium herein used was RPMI 1640 medium containing 10% fetal bovine serum, and the culture was conducted in a constant-temperature constant-humidity incubator (37° C., 5% CO2). The cells were seeded at a density of 3×10^3 cells/well in a 96-well microplate and cultured in a CO2 incubator for 24 hours, the medium was removed, and further culture was performed for 72 hours in 100 μl of respective inhibitor solutions diluted to different concentrations. 15 μl of an MTT solution (Promega, CellTiter 96) was added thereto and cultured for 4 hours. Then, blue formazan, formed by adding 100 μl of a stop solution (Promega, CellTiter 96), was dissolved.
# After the culture solution was allowed to stand for 18 hours or more, absorbance was measured at 570 nm to obtain IC50 (a concentration at which 50% of cancer cells are inhibited).
# [3] = biological target: DDR1 (Homo sapiens, UniProt Q08345); assay: Hot Spot kinase assay, DDR1; type: biochemical; conditions: for IC50: ATP 10 μM, 25° C., 120 minutes
# Experimental: The kinase inhibitory effect of the compounds of Compound Nos. 1 to 16 was measured. Kinase analysis was conducted in a “Hot Spot” analysis platform manner. Specific kinase/substrate pairs and cofactors were prepared in a reaction buffer (20 mM HEPES (pH 7.5), 10 mM MgCl2, 1 mM EGTA, 0.02% Brij35, 0.02 mg/ml BSA, 0.1 mM Na3VO4, 2 mM DTT and 1% DMSO). 10 concentrations of compounds that were serially diluted 3 times in sequence from a concentration of 20 μM were added to the reaction mixture, and a mixture of ATP (10 μM, Sigma) and 33P ATP (Perkin Elmer) was added thereto after 20 minutes. The reaction was conducted at 25° C. for 120 minutes, the spots during the reaction were filtered using P81 ion exchange filter paper (Whatman #3698-915), and the unbound phosphate was removed by washing with 0.1% phosphoric acid using a filter.
# [4] = biological target: T2, ABL^T315I (Homo sapiens, UniProt P00519, T315I); assay: Hot Spot kinase assay, ABL T315I; type: biochemical; conditions: for IC50: ATP 10 μM, 25° C., 120 minutes
# Experimental: as §1
# [5] = system: K-562 (human leukemia cancer) cells; conditions: positive controls, values in the references; read-out: GI50, μm K562; cited from earlier work
# [6] = system: patients; conditions: patients administered with ponatinib; cited from earlier work
# [7] = system: CML patients; conditions: primary therapeutic agent for CML patients; cited from earlier work
# [8] = biological target: T1, ABL^wild; conditions: positive controls, values in the references; cited from earlier work
# [9] = biological target: T2, ABL^T315I; conditions: positive controls, values in the references; cited from earlier work
# [10] = K562, 72 hours treatment, read-out: GI50, μm K562
# [11] = K562, 72 hours, read-out: GI50 against K-562 cancer cells
# Sequence of DDR1 (Q08345 19-913): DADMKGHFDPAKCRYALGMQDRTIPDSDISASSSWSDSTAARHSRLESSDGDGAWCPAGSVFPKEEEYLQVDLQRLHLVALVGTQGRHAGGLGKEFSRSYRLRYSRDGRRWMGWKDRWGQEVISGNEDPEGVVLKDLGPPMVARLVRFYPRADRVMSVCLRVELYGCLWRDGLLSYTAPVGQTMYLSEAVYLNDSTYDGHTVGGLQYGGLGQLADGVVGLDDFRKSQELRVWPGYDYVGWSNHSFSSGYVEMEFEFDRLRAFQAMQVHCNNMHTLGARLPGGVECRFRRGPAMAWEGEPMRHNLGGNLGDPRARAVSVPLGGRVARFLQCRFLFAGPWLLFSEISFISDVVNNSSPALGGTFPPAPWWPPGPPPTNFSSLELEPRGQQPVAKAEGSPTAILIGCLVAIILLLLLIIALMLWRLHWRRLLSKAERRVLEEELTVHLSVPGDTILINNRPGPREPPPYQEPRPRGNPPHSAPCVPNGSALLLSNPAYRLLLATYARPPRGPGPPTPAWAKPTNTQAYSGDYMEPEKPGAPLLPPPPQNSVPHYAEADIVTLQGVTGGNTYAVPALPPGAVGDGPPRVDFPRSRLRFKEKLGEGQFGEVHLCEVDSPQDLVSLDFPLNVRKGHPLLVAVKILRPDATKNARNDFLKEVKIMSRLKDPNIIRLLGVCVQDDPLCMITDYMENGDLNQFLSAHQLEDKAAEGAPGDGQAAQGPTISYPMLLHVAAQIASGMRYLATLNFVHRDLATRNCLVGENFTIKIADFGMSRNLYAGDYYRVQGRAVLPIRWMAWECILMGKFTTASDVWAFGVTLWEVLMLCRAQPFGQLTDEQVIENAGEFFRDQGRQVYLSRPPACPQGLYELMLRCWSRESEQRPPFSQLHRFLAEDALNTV
SMILES,IC50 [1],"GI50 [2, 10]",IC50 [3],IC50 [4],also measured
"Nc1n[nH]c2cccc(C#Cc3cccc(C(=O)Nc4cc(C(F)(F)F)cc(C(F)(F)F)c4)c3)c12 [Compound No. 10, 3-((3-Amino-1H-indazol-4-yl)ethynyl)-N-(3,5-bis(trifluoromethyl)phenyl)benzamide]",186 nM,460 ± 1340 nM,33 nM,,
Nc1n[nH]c2cccc(C#Cc3cccc(NC(=O)c4ccc(N5CCOCC5)c(C(F)(F)F)c4)c3)c12 [Compound No. 8],5.21 nM,,14.7 nM,183 nM,"inhibitory activity against ABL (in words) [1]: excellent inhibitory activity; proliferation inhibitory effect on K-562 cancer cells (in words) [2]: excellent anti-proliferative activity; GI50 [2, 11]: 20 nM; fold higher inhibitory effect than imatinib (K-562 GI50) [2]: 13 fold; fold higher inhibitory effect than nilotinib (K-562 GI50) [2]: 4 fold; inhibitory activity against the T315I point mutation of ABL (in words) [4]: exhibited inhibitory activity; inhibitory activity against DDR1 (in words) [3]: excellent inhibitory activity"
Cc1cn(-c2cc(NC(=O)c3ccc(C)c(Nc4nccc(-c5cccnc5)n4)c3)cc(C(F)(F)F)c2)cn1 [Nilotinib],,,,,GI50 [5]: 80 ± 90 nM
"Nc1n[nH]c2cccc(C#Cc3cccc(C(=O)Nc4ccc(Cl)c(C(F)(F)F)c4)c3)c12 [Compound No. 14, 3-((3-Amino-1H-indazol-4-yl)ethynyl)-N-(4-chloro-3-(trifluoromethyl)phenyl)benzamide]",255 nM,3330 ± 1180 nM,20 nM,,
"Nc1n[nH]c2cccc(C#Cc3cccc(NC(=O)c4cc(N5CCOCC5)cc(C(F)(F)F)c4)c3)c12 [Compound No. 5, N-(3-((3-Amino-1H-indazol-4-yl)ethynyl)phenyl)-3-morpholino-5-(trifluoromethyl)benzamide]",637 nM,2140 ± 1150 nM,20.1 nM,,
"Nc1n[nH]c2cccc(C#Cc3cccc(NC(=O)c4cc(C(F)(F)F)cc(C(F)(F)F)c4)c3)c12 [Compound No. 2, 4N-(3-((3-Amino-1H-indazol-4-yl)ethynyl)phenyl)-3,5-bis (trifluoromethyl)benzamide]",667 nM,,96.5 nM,,
Nc1n[nH]c2cccc(C#Cc3cccc(C(=O)Nc4cccc(C(F)(F)F)c4)c3)c12 [Compound No. 9],210 nM,3750 ± 1220 nM,18.4 nM,,
"Nc1n[nH]c2cccc(C#Cc3cccc(NC(=O)c4cccc(C(F)(F)F)c4)c3)c12 [Compound No. 1, N-(3-((3-Amino-1H-indazol-4-yl)ethynyl)phenyl)-3-(trifluoromethyl)benzamide]",313 nM,1450 ± 1160 nM,53.3 nM,2550 nM,
"Nc1n[nH]c2cccc(C#Cc3cccc(NC(=O)c4cc(F)cc(C(F)(F)F)c4)c3)c12 [Compound No. 4, N-(3-((3-Amino-1H-indazol-4-yl)ethynyl)phenyl)-3-fluoro-5-(trifluoromethyl)benzamide]",172 nM,2100 ± 1110 nM,82.8 nM,,
"CN1CCN(c2ccc(C(=O)Nc3cccc(C#Cc4cccc5[nH]nc(N)c45)c3)cc2C(F)(F)F)CC1 [Compound No. 7, N-(3-((3-Amino-1H-indazol-4-yl)ethynyl)phenyl)-4-(4-methylpiperazin-1-yl)-3-(trifluoromethyl)benzamide]",,,31.9 nM,,
CN1CCN(Cc2cc(NC(=O)c3cccc(C#Cc4cccc5[nH]nc(N)c45)c3)cc(C(F)(F)F)c2)CC1 [Compound No. 12],60.5 nM,290 nM,29.1 nM,1150 nM,
"Cc1cn(-c2cc(NC(=O)c3cccc(C#Cc4cccc5[nH]nc(N)c45)c3)cc(C(F)(F)F)c2)cn1 [Compound No. 11, 3-((3-Amino-1H-indazol-4-yl)ethynyl)-N-(3-(4-methyl-1H-imidazol-1-yl)-5-(trifluoromethyl)phenyl)benzamide]",15.4 nM,140 nM,21 nM,1060 nM,
"Cc1ccc(C(=O)Nc2cccc(C#Cc3cccc4[nH]nc(N)c34)c2)cc1C(F)(F)F [Compound No. 6, N-(3-((3-Amino-1H-indazol-4-yl)ethynyl)phenyl)-4-methyl-3-(trifluoromethyl)benzamide]",104 nM,1620 ± 1240 nM,22.6 nM,2960 nM,
Nc1n[nH]c2cccc(C#Cc3cccc(C(=O)Nc4ccc(CN5CCOCC5)c(C(F)(F)F)c4)c3)c12 [Compound No. 16],103 nM,520 ± 1250 nM,16.3 nM,1360 nM,
Cc1ccc(C(=O)Nc2ccc(CN3CCN(C)CC3)c(C(F)(F)F)c2)cc1C#Cc1cnc2cccnn12 [Ponatinib],,,,,share of patients with side effects such as thrombosis or narrowing of blood vessel walls [6]: 20%
Cc1ccc(NC(=O)c2ccc(CN3CCN(C)CC3)cc2)cc1Nc1nccc(-c2cccnc2)n1 [Imatinib],,,,,share of patients in whom effective [7]: 67%; GI50 [5]: 267 ± 30 nM
"CCN1CCN(Cc2ccc(NC(=O)c3cccc(C#Cc4cccc5[nH]nc(N)c45)c3)cc2C(F)(F)F)CC1 [Compound No. 15, 3-((3-Amino-1H-indazol-4-yl)ethynyl)-N-(4-((4-ethylpiperazin-1-yl)methyl)-3-(trifluoromethyl)phenyl)benzamide]",0.625 nM,30 nM,3.7 nM,5.82 nM,"inhibitory activity against ABL (in words) [1]: excellent inhibitory activity; proliferation inhibitory effect on K-562 cancer cells (in words) [2]: excellent anti-proliferative activity; GI50 [2, 11]: 30 nM; fold higher inhibitory effect than imatinib (K-562 GI50) [2]: 8.9 fold; fold higher inhibitory effect than nilotinib (K-562 GI50) [2]: 2.7 fold; inhibitory activity against the T315I point mutation of ABL (in words) [4]: excellent inhibitory activity; inhibitory activity against DDR1 (in words) [3]: excellent inhibitory activity"
Cc1cn(-c2cc(C(=O)Nc3cccc(C#Cc4cccc5[nH]nc(N)c45)c3)cc(C(F)(F)F)c2)cn1 [Compound No. 3],17.1 nM,120 nM,13.1 nM,1290 nM,
"Nc1n[nH]c2cccc(-c3ccc(C(=O)N4CCN(C(=O)c5ccc(Cl)cc5Cl)CC4)cc3)c12 [(4-(4-(3-amino-1H-indazol-4-yl)benzoyl)piperazin-1-yl)(2,4-dichlorophenyl)methanone]",,,,,IC50 [8]: 14 nM; GI50 [5]: 6500 nM; IC50 [9]: 450 nM
